Earlier results in patent publication US7833524B2 (priority 2005, dated 2010).

Biological target: LC/A (Clostridium botulinum, UniProt P0DPI0)
Sequence (P0DPI0 2-448 limits assumed): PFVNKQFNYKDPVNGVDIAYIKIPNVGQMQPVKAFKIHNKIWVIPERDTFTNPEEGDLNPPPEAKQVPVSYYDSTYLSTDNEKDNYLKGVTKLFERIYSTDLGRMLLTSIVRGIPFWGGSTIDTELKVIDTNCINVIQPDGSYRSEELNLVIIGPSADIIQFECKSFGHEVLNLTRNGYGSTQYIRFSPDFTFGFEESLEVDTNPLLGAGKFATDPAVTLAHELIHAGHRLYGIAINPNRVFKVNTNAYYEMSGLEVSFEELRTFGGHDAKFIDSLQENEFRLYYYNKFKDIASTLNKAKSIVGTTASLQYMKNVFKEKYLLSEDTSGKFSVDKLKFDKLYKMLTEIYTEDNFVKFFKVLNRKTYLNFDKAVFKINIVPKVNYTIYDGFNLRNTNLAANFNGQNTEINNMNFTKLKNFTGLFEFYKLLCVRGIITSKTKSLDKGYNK

SMILES	Concentration range that inhibits LC/A
C[C@H](CS)C(=O)N1CCC[C@H]1C(=O)O [captopril]	mM concentrations
CCOC(=O)[C@H](CCc1ccccc1)N[C@@H](C)C(=O)N1CCC[C@H]1C(=O)O [enalapril]	mM concentrations
